According to publication PMC6099557, “Cholinesterase Inhibition Activity, Alkaloid Profiling and Molecular Docking of Chilean Rhodophiala (Amaryllidaceae)” (Molecules : A Journal of Synthetic Chemistry and Natural …, 2018):
Values after ≈ are worked out from the molar mass of the structure shown. Like-named read-outs stand apart in the source and are kept apart here.

How the values were obtained:
BuChE from equine serum = biological target: T1, BuChE from equine serum (Equus caballus, UniProt P81908); assay: biochemical
T1 construct: BuChE from equine serum (Merck, Darmstadt, Germany); purchased Merck, Darmstadt, Germany; host or cells: equine serum
Experimental: (§1) Cholinesterase inhibitory activities were determined according to [35] with some modifications. Stock solutions with 518U of AchE from Electrophorus electricus (Merck, Darmstadt, Germany) and BuChE from equine serum (Merck, Darmstadt, Germany), respectively, were prepared and kept at −20 °C. Acetylthiocholine iodide (ATCI), S-butyrylthiocholine iodide (BTCI) and 5,5′-dithiobis (2-nitrobenzoic acid) (DTNB) were obtained from Merck (Darmstadt, Germany). Fifty microliters of AChE or BuChE (both enzymes used at 6.24 U) in phosphate buffer (8 mM K2HPO4, 2.3 mM NaH2PO4, 0.15 NaCl, pH 7.5) and 50 μL of the sample dissolved in the same buffer were added to the wells. The plates were incubated for 30 min at room temperature. Then, 100 μL of the substrate solution (0.1 M Na2HPO4, […], and 0.6 mM ATCI or 0.24 mM BTCI in Millipore water, pH 7.5) was added. After 10 min, the absorbance was read at 405 nm in a Labsystem microplate reader (Thermo Fischer, Waltham, MA, USA). Enzyme activity was calculated as percent compared to a control using buffer without any inhibitor. […] In a first step, samples were assessed at 10, 100 and 200 μg/mL towards both enzymes. […] The cholinesterase inhibitory data were analyzed with the software Microsoft Office Excel 2010 (Microsoft, Redmond, WA, USA).

human erythrocye AChE = conditions: human erythrocyte AChE, tested 0.5–500 μg/mL, cited from earlier work
human serum BuChE = conditions: tested 0.5–500 μg/mL, cited from earlier work
[1] = biological target: T2, AchE from Electrophorus electricus (Electrophorus electricus, UniProt O42275); assay: biochemical; conditions: AChE inhibitory activity IC50, single alkaloids and reference galanthamine; electric eel AChE
T2 construct: purchased Merck, Darmstadt, Germany
Experimental: as §1

[2] = tested on: panel of eight human cancer cell lines; conditions: cited from earlier work
[3] = tested on: multi-drug resistant breast cell line NCLADR; conditions: montanine at 2.5 μg/mL; cited from earlier work
S. aureus ATCC 6538 = conditions: cited from earlier work
E. coli ATCC 24922 = conditions: cited from earlier work
P. aeruginosa ATCC 27853 = conditions: cited from earlier work
[4] = single alkaloids and reference galanthamine, read-out: BuChE inhibitory activity IC50 (converted)
[5] = BuChE inhibitory activity IC50, single alkaloids and reference galanthamine

T1 sequence (P81908 whole entry): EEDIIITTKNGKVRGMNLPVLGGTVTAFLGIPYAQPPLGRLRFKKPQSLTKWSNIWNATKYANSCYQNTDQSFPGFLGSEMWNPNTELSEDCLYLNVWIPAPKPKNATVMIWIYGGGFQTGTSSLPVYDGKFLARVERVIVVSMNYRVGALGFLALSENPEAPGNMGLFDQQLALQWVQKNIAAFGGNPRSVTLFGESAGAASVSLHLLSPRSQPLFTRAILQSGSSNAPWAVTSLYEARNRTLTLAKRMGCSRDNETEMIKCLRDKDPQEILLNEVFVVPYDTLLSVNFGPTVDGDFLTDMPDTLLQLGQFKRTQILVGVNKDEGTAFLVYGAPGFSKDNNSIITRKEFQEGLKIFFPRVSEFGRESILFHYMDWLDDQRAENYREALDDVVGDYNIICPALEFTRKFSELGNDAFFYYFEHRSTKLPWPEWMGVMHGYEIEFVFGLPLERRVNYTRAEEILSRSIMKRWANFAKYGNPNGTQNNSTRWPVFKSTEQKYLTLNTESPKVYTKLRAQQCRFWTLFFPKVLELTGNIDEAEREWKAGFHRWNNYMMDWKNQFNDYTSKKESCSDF
T2 sequence (O42275 24-633): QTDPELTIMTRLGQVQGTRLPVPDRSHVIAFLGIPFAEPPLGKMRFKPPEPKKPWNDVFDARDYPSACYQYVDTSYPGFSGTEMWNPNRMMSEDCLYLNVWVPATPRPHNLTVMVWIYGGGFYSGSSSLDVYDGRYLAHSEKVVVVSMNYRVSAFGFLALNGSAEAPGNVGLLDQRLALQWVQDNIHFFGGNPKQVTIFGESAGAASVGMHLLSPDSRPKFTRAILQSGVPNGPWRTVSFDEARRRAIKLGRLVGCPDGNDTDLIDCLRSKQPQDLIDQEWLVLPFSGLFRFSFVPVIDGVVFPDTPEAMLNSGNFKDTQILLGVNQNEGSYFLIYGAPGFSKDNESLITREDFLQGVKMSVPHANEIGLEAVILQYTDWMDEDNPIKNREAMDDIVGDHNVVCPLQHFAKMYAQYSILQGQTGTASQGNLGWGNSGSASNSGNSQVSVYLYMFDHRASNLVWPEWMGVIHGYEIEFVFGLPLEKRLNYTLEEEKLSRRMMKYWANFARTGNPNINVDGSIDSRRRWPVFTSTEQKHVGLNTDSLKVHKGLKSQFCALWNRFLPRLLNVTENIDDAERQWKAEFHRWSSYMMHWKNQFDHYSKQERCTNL

Row | SMILES | Activity on human AChE (in words) (human erythrocye AChE) | Activity on human BuChE (in words) (human serum BuChE) | IC50 (BuChE from equine serum; [5]) | also measured
1 | OC1C=CC23c4cc5c(cc4CN(CC2O)C3C1)OCO5 (centres unmarked) [hamayne (20b), hamayne] | presented activity | inactive |  | IC50 (BuChE from equine serum; [4]): 168 µM
2 | COC1C=CC23c4cc5c(cc4CN(CC2O)C3C1)OCO5 (centres unmarked) [haemanthamine (18a), haemanthamine] | not active | not active | > 664 µM | 
3 | COc1cc2c(cc1O)CN1CC[C@@]23C=C[C@@H](O)C[C@H]13 [8-O-demethylmaritidine (16), 8-O-demethylmaritidine] | presented activity | inactive | 468 µM | IC50 [1]: 414 µM
4 | COc1cc2c(cc1O)C13CCC(O)CC1N(CC3)C2 (centres unmarked) [deacetylcantabricine (17), deacetylcantabricine] |  |  | > 726 µM | IC50 [1]: > 726 µM
5 | O[C@H]1[C@H]2c3cc4c(cc3CN3CCC(=C[C@@H]1O)[C@H]23)OCO4 [lycorine (9), lycorine] | not active | not active | > 696 µM | 
6 | CO[C@H]1C=C2[C@H]3C[N@@](Cc4cc5c(cc43)OCO5)[C@H]2C[C@@H]1O [montanine] |  |  |  | Activity towards a panel of eight human cancer cell lines [2]: showed activity; Activity on NCLADR compared with doxorubicine [3]: more active than doxorubicine; MIC (S. aureus ATCC 6538): 5 µg/mL (≈ 16.6 µM); MIC (E. coli ATCC 24922): 5 µg/mL (≈ 16.6 µM); MIC (P. aeruginosa ATCC 27853): 20 µg/mL (≈ 66.4 µM)
7 | OC1C=CC23c4cc5c(cc4CN(CC2O)C3C1)OCO5 (centres unmarked) [11-hydroxyvittatine (20a), 11-hydroxyvittatine] |  |  |  | IC50 (BuChE from equine serum; [4]): > 696 µM; Activity on human AChE (in words) (human erythrocye AChE; listed as 11-hydroxyvitattine): not active; Activity on human BuChE (in words) (human serum BuChE; listed as 11-hydroxyvitattine): not active
